Source: US5880099A, “Inositol polyphosphates and methods of using same” (The Regents of the University of California, priority 1997, dated 1999)
“Also recorded” adds a separate entry of the source.

What was measured:
[1] = tested on: T84 cells (EGF induced inhibition of chloride ion secretion); details: cited from earlier work
Ins(3,4,5,6)P4 = details: background; cited from earlier work
[2] = tested on: T84 cells (EGF induced inhibition of chloride ion secretion); assay: EGF induced inhibition of carbachol-stimulated chloride ion secretion in T84 cells and its reversal; type: cell-based, human; details: EGF 16.3 nM, carbachol 100 μM
Description: After an additional 15 min incubation, 100 μM carbachol was added to acutely elevate intracellular calcium concentrations. Controls also were stimulated with carbachol but were not pretreated with EGF. Data are the means of duplicate measurements from a representative experiment (total of three experiments).

[3] = tested on: phosphatidylinositol 3-kinase (PI 3-kinase); details: Uribe et al. 1996b; cited from earlier work
[4] = tested on: T84 colonic epithelial cells (carbachol-mediated inhibition of chloride ion secretion); assay: Reversal of carbachol-mediated inhibition of thapsigargin-stimulated chloride ion secretion in T84 cells; type: cell-based, human; details: carbachol 10^-4 M, thapsigargin 1 μM
Description: T84 colonic epithelial cells were treated with D,L-1,2-cyclohexylidene-Ins(3,4,5,6)P4 /AM, 1-Bu-2-Bt-Ins(3,4,5,6)P4 /AM, Bu2 -Ins(3,4,5,6)P4 /AM, 3-Bt-2-Bu-Ins(1,4,5,6)P4 /AM, Bu2 -Ins(1,4,5,6)P4 /AM, 1-Bt-2-Bu-Ins(3,4,5,6)P4 /AM or 3-Bu-2-Bt-Ins(1,4,5,6)P4 /AM and the short circuit current was measured.
One set of cells was preincubated for 30 min with an inositol polyphosphate derivative. The other two sets of cells were preincubated with vehicle, alone. Measurement of Isc was initiated at time 0. At 5 min, carbachol (10^-4 M) was added to one set of cells preincubated with vehicle alone (designated "Carbachol" in FIG. 5) and to the set of cells preincubated with inositol polyphosphate derivatives (designated "Carbachol+D,L-1,2-Cyclohexylidene-Ins(3,4,5,6)P4 /AM" in FIG. 5A). At 30 min, 1 μM thapsigargin was added. Data were collected for n=4 to 6 experiments.

[5] = tested on: colonic epithelial T84 cells (calcium-mediated chloride ion secretion); assay: Inhibition of calcium-mediated chloride ion secretion (Table I summary); type: cell-based, human; details: pathway: Ins (3,4,5,6)P4
Source text: The invention provides compounds that are agonists or antagonists of inositol polyphosphates. Inositol polyphosphate derivatives can function as inositol polyphosphate agonists and antagonists. The effects of compounds of the invention on Ins(3,4,5,6)P4 - and PtdInsP3 -mediated inhibition of calcium-mediated chloride ion secretion are described in the Examples and summarized in Table I.
Enantiomerically pure 1,2-Bt2 -Ins(3,4,5,6)P4 /AM was synthesized to determine if 1,2-Bt2 -Ins(3,4,5,6)P4 /AM mediates the uncoupling of chloride ion secretion from intracellular calcium concentrations. T84 cells (passages 18-48) were maintained as described previously (Weymer, et al., J. Clin. Invest. 76:1828 (1985)), which is incorporated herein by reference. After 7-10 days of incubation on SNAP-WELLS (Corning Costar; Cambridge, Mass.), monolayers had formed tight junctions. Cell monolayers were preincubated with 100, 200 or 400 μM Bt2 -Ins(3,4,5,6)P4 /AM for 30 min prior to mounting. After an additional 30 min, 0.1 mM histamine was added and chloride ion secretion was monitored. Chloride ion secretion was measured as short circuit current (Isc) across T84 monolayers grown to confluence and mounted in Ussing chambers equipped with voltage clamps (Physiologic Instruments; San Diego, Calif.). Data was acquired and analyzed using "Acquire and Analyze" software (Physiologic Instruments).

[6] = tested on: T84 cells (Ins(3,4,5,6)P4 inhibition of histamine-stimulated chloride ion secretion); assay: Reversal of Bt2 -Ins(3,4,5,6)P4 /AM inhibition of histamine-stimulated chloride ion secretion in T84 cells; type: cell-based, human; details: T84 cells, histamine-stimulated
Description: Initial studies were directed towards understanding structural determinants of Ins(3,4,5,6)P4 responsible for the inhibitory effect on calcium-mediated chloride ion secretion. A series of cell permeable inositol polyphosphate derivatives were synthesized. These derivatives contained either one or two non-hydrolyzable chemical groups on the 1, 2 or 3 position. T84 monolayers were preincubated for 30 minutes with 200 μM of 2-Bt-1-Me-Ins(3,4,5,6)P4 /AM, Me2 -Ins(3,4,5,6)P4 /AM, Me2 -Ins(1,4,5,6)P4 /AM or 2-Bt-3-Me-Ins(1,4,5,6)P4 /AM.
Following the incubation, cells were mounted in Ussing chambers. Calcium-mediated chloride ion secretion was stimulated with histamine (10^-4 M). Control values were the response to histamine in coincubated monolayers. Data are represented as mean peak ΔIsc ±SEM, expressed as % control for 8 to 10 experiments. Significant differences were identified using the Student's two-tailed t test.
T84 cells were preincubated with cell permeant inositol polyphosphates as described above to determine if any of the inositol polyphosphate derivatives function as antagonists of Ins(3,4,5,6)P4 inhibition of calcium-mediated chloride ion secretion. Following histamine stimulation, short circuit current was measured. […] The % control shown in FIG. 3 represents ΔIsc over peak Isc in control monolayers stimulated with histamine. However, […]

| Compound | effect on calcium-mediated chloride ion secretion induced by carbachol and thapsigargin (in words) ([1]; Uribe et al. 1996) | increase in Ins(3,4,5,6)P4 levels (Ins(3,4,5,6)P4) | effect on carbachol-stimulated chloride ion secretion / EGF induced inhibition (in words) [2] | effect on formation of PI 3-kinase products (in words) [3] | reversal of EGF induced inhibition of chloride ion secretion (in words) ([1]; Uribe et al. 1996b) | reversal of carbachol-mediated inhibition of chloride ion secretion (in words) [4] | Mechanism and Inositol Polyphosphate Pathway Affected [5] | reversal of the inhibitory effect of Bt2 -Ins(3,4,5,6)P4 /AM / Ins(3,4,5,6)P4-mediated inhibition (in words) [6] |
| --- | --- | --- | --- | --- | --- | --- | --- | --- |
| EGF: epidermal growth factor (EGF) | inhibits calcium-mediated chloride ion secretion | 1.7 -fold | decreased chloride ion secretion; also recorded: inhibited carbachol stimulated chloride ion secretion | stimulated an increase in levels of the PI 3-kinase products | – | – | – | – |
| COC[C@H]1OC(=O)c2coc3c2[C@@]1(C)C1=C(C3=O)[C@@H]2CCC(=O)[C@@]2(C)C[C@H]1OC(C)=O [Wortmannin, reference compound] | – | – | – | blocked formation of PtdInsP3 and PtdInsP2 | reversed the EGF induced inhibition of chloride ion secretion | – | – | – |
| CC(=O)OCOP(=O)(OCOC(C)=O)O[C@H]1[C@H](OP(=O)(OCOC(C)=O)OCOC(C)=O)[C@@H](OP(=O)(OCOC(C)=O)OCOC(C)=O)[C@H]2OC3(CCCCC3)O[C@H]2[C@@H]1OP(=O)(OCOC(C)=O)OCOC(C)=O (relative stereo) [rac-1,2-Di-O-cycloheylidene-myo-inositol 3,4,5,6-tetrakisphosphate octakis(acetoxymethyl)ester] | – | – | – | – | – | enhanced chloride ion secretion; also recorded: reversed the inhibitory effect of carbachol on calcium-mediated chloride ion secretion; also recorded: reversed the carbachol-mediated inhibition of chloride ion secretion stimulated by thapsigargin | Antagonist of | – |
| CCCCO[C@@H]1[C@H](OCCCC)[C@H](OP(=O)(OCOC(C)=O)OCOC(C)=O)[C@@H](OP(=O)(OCOC(C)=O)OCOC(C)=O)[C@H](OP(=O)(OCOC(C)=O)OCOC(C)=O)[C@H]1OP(=O)(OCOC(C)=O)OCOC(C)=O [Bu2 -Ins(3,4,5,6)P4 /AM, D-1,2-Di-O-butyl-myo-inositol 3,4,5,6-tetrakisphosphate octakis(acetozymethyl)ester] | – | – | – | – | – | enhanced chloride ion secretion; also recorded: reversed the carbachol-mediated inhibition of chloride ion secretion stimulated by thapsigargin | Antagonist of | reversed Ins(3,4,5,6)P4 -mediated inhibition of chloride ion secretion |
| CCCCO[C@@H]1[C@H](OC(=O)CCC)[C@H](OP(=O)(OCOC(C)=O)OCOC(C)=O)[C@@H](OP(=O)(OCOC(C)=O)OCOC(C)=O)[C@H](OP(=O)(OCOC(C)=O)OCOC(C)=O)[C@H]1OP(=O)(OCOC(C)=O)OCOC(C)=O [1-Bu-2-Bt-Ins(3,4,5,6)P4 /AM, D-1-O-Butyl-2-O-butyryl-myo-inositol 3,4,5,6-tetrakisphosphate octakis(acetoxymethyl)ester] | – | – | – | – | – | enhanced chloride ion secretion; also recorded: reversed the carbachol-mediated inhibition of chloride ion secretion stimulated by thapsigargin | Antagonist of | reversed Ins(3,4,5,6)P4 -mediated inhibition of chloride ion secretion |
